Experimental data as given in patent US8124655B2, “Use of LR-90 and LR-102 to overcome insulin resistance” (City of Hope, priority 2007, dated 2012).

Assays:
[1] = tested on: CML-AGE, AGER; assay: Plasma and renal AGE and AGER; assay type: in vivo, rat; conditions: ZDF rats
Protocol: All animal studies were carried out in compliance with policies outlined in The Guide for the Care and Handling of Laboratory Animals (NIH Publication No. 85-23) that have been approved by the City of Hope Animal Care Committee. Male ZDF (fa/fa) and male Zucker lean (+/+; ZL) rats were obtained at the age of 5 weeks from Charles River Laboratories (Wilmington, Mass., USA). Animals were maintained with free access to Purina 5008 rat chow (Purina Mills, St Louis, Mo., USA) and tap water. All animals were individually housed in a controlled room with a 12 h dark-light cycle. At the age of 13 weeks, the animals were divided into the following groups: (1) ZL rats (n=6); (2) ZDF rats without treatment (n=6); and (3) ZDF rats treated with LR-90 at 50 mg/l in their drinking water (ZDF90, n=6). The dose of LR-90 was chosen after previous experiments with type 1 diabetic nephropathy. Food, water intake, body weight and blood glucose levels were monitored periodically. Systolic blood pressure was measured by tail-cuff plethysmography (CODA2 Blood Pressure System; Kent Scientific, Torrington, Conn., USA). […] Plasma glucose, lipids and Nε-(carboxymethyl)lysine-AGE Plasma glucose was measured using a glucose analyzer (2300 STAT; YSI, Yellowsprings, Ohio, USA). Total plasma triacylglycerol and cholesterol concentrations were quantified using the Vitros 250 Chemistry System (Johnson & Johnson, Rochester, N.Y., USA). Nε-(Carboxymethyl)lysine (CML)-AGE was liberated from plasma proteins by acid hydrolysis and then measured by ion-pair reversed-phase liquid chromatography/tandem mass spectrometry as described previously. […]
Renal cortical tissues were homogenised in PBS buffer with 1% (vol./vol.) Nonidet P-40, 0.5% (wt/vol.) sodium deoxycholate, 0.1% (wt/vol.) SDS and protease inhibitor mixture (Roche, Indianapolis, Ind., USA). […] Protein concentrations were measured using the Bio-Rad DC Assay kit. […] Immunoreactive proteins were detected by enhanced chemiluminescence (Western Lightning Chemiluminescence Reagent; Perkin-Elmer, Waltham, Mass., USA) using horseradish peroxidase-labelled secondary antibodies. […]

[2] = tested on: Zucker diabetic fatty (ZDF) rat; assay: Kidney lipid peroxidation (malondialdehyde, TBARS), Example 1; assay type: in vivo; conditions: ZDF animals
Protocol: To assess lipid peroxidation in renal cortical homogenates, malondialdehyde, an end-product of lipid peroxidation, was measured as thiobarbituric acid reactive substances by calorimetric reaction as described. Reaction was carried in the presence of EDTA and antioxidant butylated hydroxytoluene, and the absorbance was measured at 532 nm (UV-1601; Shimadzu Scientific Instruments, Columbia, Md., USA). Hydrolysed 1,1,3,3-tetramethoxypropane was used as standard [prepared by incubating 10 mmol/l tetramethoxypropane with 1% (vol./vol.) H2SO4 for 2 h at room temperature]. Results are expressed as nanomole malondialdehyde per milligram protein.

[3] = tested on: 3T3 adipocytes; assay: FFA uptake and glucose uptake in 3T3 adipocytes; assay type: cell-based; conditions: FIG. 14
Text: FIG. 14. Effect of LR-90 on 3T3 adipocytes. Tissue culture data on 3T3 adipocytes, showing free fatty acid (FFA) uptake and glucose uptake improvements upon contact with LR-90.
The present Example, with reference to FIG. 14, provides tissue culture data on 3T3 adipocytes, showing free fatty acid (FFA) uptake and glucose uptake improvements upon contact with LR-90.

[4] = described in U.S. Pat. No. 6,787,566; cited from earlier work

Question: For `CC(C)(Oc1ccc(NC(=O)Nc2ccc(Cc3ccc(NC(=O)Nc4ccc(OC(C)(C)C(=O)O)cc4)c(Cl)c3)cc2Cl)cc1)C(=O)O` [LR-90, methylene bis[4,4′-(2-chlorophenylureidophenoxyisobutyric acid)]], which “Ager mRNA and protein in kidney tissues” value ([1]; RT-PCR and immunostaining) is on record?
Answer: The value was “markedly abrogated”.

Question: What about the “AGE accumulation in kidney tissues” value ([1]; immunohistochemistry) of the same compound?
Answer: Its value is “markedly abrogated”.

Question: What about the “attenuation of circulating plasma CML-AGE concentration” value ([1]; p<0.01, LC/tandem MS) of the same compound?
Answer: Its value is 22%.

Question: What about the “reduction of kidney lipid peroxidation” value [2] of the same compound?
Answer: Its value is about 40%.

Question: What about the “free fatty acid (FFA) uptake” value [3] of the same compound?
Answer: Its value is “improvements”.

Question: And the glucose uptake [3]?
Answer: Its glucose uptake is “improvements”.

Question: And the “breaking AGE-protein cross-links” value [4]?
Answer: The value was “active”.
